SMILES strings stand for the structures. Where only a bound is given, the exact number is not on record here.

The target in this assay is SRSF protein kinase 1 (Homo sapiens, UniProt Q96SB4). The assay is described as follows: Inhibition of SRPK1 (unknown origin) using RS peptide as substrate incubated for 120 mins in the presence 33P-ATP.
SRSF protein kinase 1, sequence (Q96SB4 whole entry): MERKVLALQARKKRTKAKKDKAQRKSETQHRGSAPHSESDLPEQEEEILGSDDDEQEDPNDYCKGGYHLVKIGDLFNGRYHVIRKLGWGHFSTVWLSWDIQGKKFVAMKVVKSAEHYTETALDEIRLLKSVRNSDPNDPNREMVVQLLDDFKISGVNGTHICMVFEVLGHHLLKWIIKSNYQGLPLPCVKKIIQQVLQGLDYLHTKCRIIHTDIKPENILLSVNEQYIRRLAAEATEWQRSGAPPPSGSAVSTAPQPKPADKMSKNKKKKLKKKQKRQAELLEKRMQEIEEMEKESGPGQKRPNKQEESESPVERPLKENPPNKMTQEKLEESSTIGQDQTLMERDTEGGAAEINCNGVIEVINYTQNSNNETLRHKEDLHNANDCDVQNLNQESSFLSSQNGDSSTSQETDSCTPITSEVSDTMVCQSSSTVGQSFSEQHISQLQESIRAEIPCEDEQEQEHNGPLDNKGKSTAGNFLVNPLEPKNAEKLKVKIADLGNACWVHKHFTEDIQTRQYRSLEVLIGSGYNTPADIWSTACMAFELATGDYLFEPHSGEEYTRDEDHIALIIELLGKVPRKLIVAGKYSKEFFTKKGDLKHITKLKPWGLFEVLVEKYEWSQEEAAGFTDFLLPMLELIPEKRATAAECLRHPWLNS
Turning to `CN(c1ncccc1CNc1cnc(-c2nc3cc(Cl)cc(F)c3[nH]2)nc1)S(C)(=O)=O`, the IC50 was under 50 nM. In the case of `CN(c1ncccc1CNc1cnc(-c2nc3cc(F)cc(F)c3[nH]2)nc1)S(C)(=O)=O` it was under 50 nM. Consider `CN(c1ncccc1CNc1cnc(-c2nc3cc(-c4cnn(C)c4)ccc3[nH]2)nc1)S(C)(=O)=O`, for which the IC50 is under 50 nM. In the case of `CC(C)c1ccc2[nH]c(-c3ncc(NCc4cccnc4N(C)S(C)(=O)=O)cn3)nc2c1` it was under 50 nM. The value for `Cc1ccc2nc(-c3ncc(NCc4cccnc4N(C)S(C)(=O)=O)cn3)[nH]c2c1` was under 50 nM; that for `CN(c1ncccc1CNc1ccc(-c2nc3cc(Cl)ccc3[nH]2)nc1)S(C)(=O)=O` was under 50 nM.

What is called IC50 is the concentration at which inhibition is half-maximal. A low value points to greater potency in that assay.

Values taken from ChEMBL document CHEMBL5257144, “Novel Serine-Arginine Protein Kinase Inhibitors for Treating Cancer” (ACS Med Chem Lett, 2023).
